Converted amounts (≈) assume the structure as drawn.
test system: Aspergillus niger; assay: Minimum Inhibitory Concentration (MIC), broth serial dilution; format: cell-based; details: 168 h; E=Aspergillus niger; Sabouraud Dextrose Broth, 10^5 cells or spores/ml, 28°C, molds incubated seven days
Description: (§1) Solutions of the experimental compounds in dimethyl sulfoxide were serially diluted in nutrient broth (Tryptic Soy Broth for bacteria and Sabouraud Dextrose Broth for fungi) in microliter plates. Equal volumes of a broth suspension of bacteria (10^6 CFU/ml) or fungi (10^5 cells or spores/ml) were added to each dilution, and the plates were incubated at 37°C (bacteria and yeast) or 28°C (molds). Bacteria, yeast and molds were incubated two, five and seven days respectively before determining the highest inhibitory dilution.

Q: How did the MIC turn out when `Cc1cc(CC(C)CC(C)(C)C)n(O)c(=O)c1` (stereo not drawn) [OCTOPIROX® biocide, reference compound] was run?
A: 2 µg/mL (≈ 8.43 µM)

Q: How did the MIC turn out when `CCCCCCCCOc1cccc(=S)n1O` [Example 3, 1-hydroxy-6-octyloxypyridine-2(1H)-thione] was run?
A: 8 µg/mL (≈ 31.3 µM)

Q: With `CCCCCCCCOc1cccc(=O)n1O` [Example 2, 1-Hydroxy-6-octyloxypyridine-2(1H)-one] as the compound, how does the MIC read?
A: 32 µg/mL (≈ 134 µM)

Q: With `CC(CCOc1cccc(=O)n1O)CC(C)(C)C` (stereo not drawn) [Example 1, 1-Hydroxy-6-(3,5,5-trimethylhexyloxy)-pyridine-2(1H)-one] as the compound, how does the MIC read?
A: 16 µg/mL (≈ 63.2 µM)

test system: Aureobasidium pullulans; assay: as above; format: cell-based; details: F=Aureobasidium pullulans; Sabouraud Dextrose Broth, 10^5 cells or spores/ml
Description: as §1

Q: Which MIC does the source give for `Cc1cc(CC(C)CC(C)(C)C)n(O)c(=O)c1` (stereo not drawn) [OCTOPIROX® biocide, reference compound] here?
A: 16 to 32 µg/mL (≈ 67.4 to 135 µM)

Q: How did the MIC turn out when `CCCCCCCCOc1cccc(=S)n1O` [Example 3, 1-hydroxy-6-octyloxypyridine-2(1H)-thione] was run?
A: 16 µg/mL (≈ 62.7 µM)

Q: For `CCCCCCCCOc1cccc(=O)n1O` [Example 2, 1-Hydroxy-6-octyloxypyridine-2(1H)-one], which MIC is on record?
A: 4 µg/mL (≈ 16.7 µM)

Q: How did the MIC turn out when `CC(CCOc1cccc(=O)n1O)CC(C)(C)C` (stereo not drawn) [Example 1, 1-Hydroxy-6-(3,5,5-trimethylhexyloxy)-pyridine-2(1H)-one] was run?
A: 2 µg/mL (≈ 7.89 µM)

test system: Candida albicans; assay: as above; format: cell-based; details: 120 h; C=Candida albicans; Sabouraud Dextrose Broth, 10^5 cells or spores/ml, 37°C, yeast incubated five days
Description: as §1

Q: Which MIC does the source give for `Cc1cc(CC(C)CC(C)(C)C)n(O)c(=O)c1` (stereo not drawn) [OCTOPIROX® biocide, reference compound] here?
A: 2 µg/mL (≈ 8.43 µM)

Q: How did the MIC turn out when `CCCCCCCCOc1cccc(=S)n1O` [Example 3, 1-hydroxy-6-octyloxypyridine-2(1H)-thione] was run?
A: 4 µg/mL (≈ 15.7 µM)

Q: How did the MIC turn out when `CCCCCCCCOc1cccc(=O)n1O` [Example 2, 1-Hydroxy-6-octyloxypyridine-2(1H)-one] was run?
A: 4 µg/mL (≈ 16.7 µM)

Q: Which MIC does the source give for `CC(CCOc1cccc(=O)n1O)CC(C)(C)C` (stereo not drawn) [Example 1, 1-Hydroxy-6-(3,5,5-trimethylhexyloxy)-pyridine-2(1H)-one] here?
A: 2 µg/mL (≈ 7.89 µM)

test system: Escherichia coli; assay: as above; format: cell-based; details: 48 h; A=Escherichia coli; Tryptic Soy Broth, 10^6 CFU/ml, 37°C, bacteria incubated two days
Description: as §1

Q: With `Cc1cc(CC(C)CC(C)(C)C)n(O)c(=O)c1` (stereo not drawn) [OCTOPIROX® biocide, reference compound] as the compound, how does the MIC read?
A: 128 µg/mL (≈ 539 µM)

Q: `CCCCCCCCOc1cccc(=S)n1O` [Example 3, 1-hydroxy-6-octyloxypyridine-2(1H)-thione] was tested. Which MIC did it give?
A: 16 µg/mL (≈ 62.7 µM)

Q: For `CCCCCCCCOc1cccc(=O)n1O` [Example 2, 1-Hydroxy-6-octyloxypyridine-2(1H)-one], which MIC is on record?
A: 32 µg/mL (≈ 134 µM)

Q: Which MIC does the source give for `CC(CCOc1cccc(=O)n1O)CC(C)(C)C` (stereo not drawn) [Example 1, 1-Hydroxy-6-(3,5,5-trimethylhexyloxy)-pyridine-2(1H)-one] here?
A: 32 µg/mL (≈ 126 µM)

test system: Fusarium sp.; assay: as above; format: cell-based; details: 168 h; D=Fusarium sp.; Sabouraud Dextrose Broth, 10^5 cells or spores/ml, 28°C, molds incubated seven days
Description: as §1

Q: `Cc1cc(CC(C)CC(C)(C)C)n(O)c(=O)c1` (stereo not drawn) [OCTOPIROX® biocide, reference compound] was tested. Which MIC did it give?
A: 2 µg/mL (≈ 8.43 µM)

Q: Which MIC does the source give for `CCCCCCCCOc1cccc(=S)n1O` [Example 3, 1-hydroxy-6-octyloxypyridine-2(1H)-thione] here?
A: 4 µg/mL (≈ 15.7 µM)

Q: `CCCCCCCCOc1cccc(=O)n1O` [Example 2, 1-Hydroxy-6-octyloxypyridine-2(1H)-one] was tested. Which MIC did it give?
A: 2 µg/mL (≈ 8.36 µM)

Q: Which MIC does the source give for `CC(CCOc1cccc(=O)n1O)CC(C)(C)C` (stereo not drawn) [Example 1, 1-Hydroxy-6-(3,5,5-trimethylhexyloxy)-pyridine-2(1H)-one] here?
A: 2 µg/mL (≈ 7.89 µM)

test system: Staphylococcus aureus; assay: as above; format: cell-based; details: 48 h; B=Staphylococcus aureus; Tryptic Soy Broth, 10^6 CFU/ml, 37°C, bacteria incubated two days
Description: as §1

Q: `Cc1cc(CC(C)CC(C)(C)C)n(O)c(=O)c1` (stereo not drawn) [OCTOPIROX® biocide, reference compound] was tested. Which MIC did it give?
A: 64 µg/mL (≈ 270 µM)

Q: Which MIC does the source give for `CCCCCCCCOc1cccc(=S)n1O` [Example 3, 1-hydroxy-6-octyloxypyridine-2(1H)-thione] here?
A: 16 µg/mL (≈ 62.7 µM)

Q: How did the MIC turn out when `CCCCCCCCOc1cccc(=O)n1O` [Example 2, 1-Hydroxy-6-octyloxypyridine-2(1H)-one] was run?
A: 16 µg/mL (≈ 66.9 µM)

Q: How did the MIC turn out when `CC(CCOc1cccc(=O)n1O)CC(C)(C)C` (stereo not drawn) [Example 1, 1-Hydroxy-6-(3,5,5-trimethylhexyloxy)-pyridine-2(1H)-one] was run?
A: 32 µg/mL (≈ 126 µM)
